Experimental findings from US20090258914A1, “Inhibitor of Anti-Apoptotic Proteins” (Burnham Institute for Medical Research, priority 2008, published 2009) are described below.

One series has as its system A549L. Description: Cell viability IC50, A549L. Type of series: cell-based. The note with it: mean ± standard deviation of three independent experiments. The procedure:
(§1) The effectiveness of compound A was also evaluated, in comparison with compound 1 shown in Table 1, by determining mean IC50 values, which were measured for three independent experiments (each in triplicate) for compounds 1 and A. All points were normalized to control as a percentage of cell viability and statistics were completed with Graphpad Prism software.

A further series can be described thus: Microsomal stability. Type of series: in vitro ADME.
The next series concerns RS11846S. Description: Cell viability IC50, RS11846S. Type of series: cell-based. The note with it: mean ± standard deviation of three independent experiments. As for the experimental part: as §1
A further series concerns H460. Description: Cell viability, H460. The following applies: for IC50: Homo sapiens, NCI-H460, cell viability, mean ± standard deviation of three independent experiments. Type of series: cell-based. The procedure: (§2) The inhibition information for cells H460 and PC3ML is also shown by FIG. 2. […] The structures of compounds 1-3 are shown in Table 1, above, and the structure of compound 4 is as follows:
as §1

The target of a further series is T1, BCL-xL (Homo sapiens, UniProt Q07817).
T1 construct: Recombinant full length BCL-XL was produced from a pET-19b (Novagen) plasmid construct; poly-His (N); made in house; host or cells: E. coli BL21
T1 sequence (Q07817 whole entry, species assumed): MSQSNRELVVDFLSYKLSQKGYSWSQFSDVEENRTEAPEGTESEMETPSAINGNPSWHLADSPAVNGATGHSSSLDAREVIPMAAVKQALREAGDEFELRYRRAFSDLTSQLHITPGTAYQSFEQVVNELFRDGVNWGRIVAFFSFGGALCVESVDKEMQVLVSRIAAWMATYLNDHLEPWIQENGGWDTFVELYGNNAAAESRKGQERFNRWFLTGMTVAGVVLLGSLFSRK
Description: Dissociation constant (Kd) / binding to BCL-xL. As for the experimental part:
The inhibition was also evaluated by measuring dissociation constant (Kd) values for compound A in comparison with some related compounds 1, 2, and 3.
For all NMR experiments, BCL-xL was exchanged into 50 mM phosphate buffer at pH 7.5 and measurements were performed at 30° C. 2D [^15N,^1H]-HSQC spectra for BCL-xL were measured with 0.5 mM samples of ^15N-labeled protein. All experiments were performed with a 600 MHz Bruker Avance spectrometer, both equipped with either a TXI probe or a TCI cryoprobe. In all experiments, dephasing of residual water signals was obtained with a WATERGATE sequence. In order to test the ability of test compounds to bind to Bcl-xL, a 25 μM sample of the protein was prepared and 1D ^1H NMR spectra were collected in absence and presence of test compounds. By observing the aliphatic region of the spectra, binding can be readily detected in these simple experiments due to chemical shift changes in active site methyl groups of Ile, Leu, Thr, Val or Ala (region between 0.8 and 0.3 ppm).

A short description of the next series: Plasma stability. Type of series: in vitro ADME.
A further series has as its system PC3ML. The series can be described thus: Cell viability, PC3ML. Type of series: cell-based. The note with it: for IC50: PC3-ML, cell viability, mean ± standard deviation of three independent experiments. The procedure: as §2, §1
Series [1] deals with B6Bcl2 mice. The series can be described thus: Spleen shrinkage / in vivo efficacy in B6Bcl2 transgenic mice. The following applies: for in vivo activity / order of potency in terms of in vivo efficacy: B6BCL-2 transgenic mouse. The arrangement: species or system mouse. The text has this:
In the same model, another known compound apogossypolone was not effective. Gossypol is described, e.g., in U.S. Pat. No. 7,186,708. Apogossypol is described, e.g., in Meyers A. I.; Willemsen J. J., Tetrahedron Letters, vol. 37, No. 6, February, […], pp. 791-792.
(§3) Compound A was given to B6Bcl2 mice at a daily dose of […] for 3 days through oral gavage. […] Both compound A and the negative control were preliminarily dissolved in PBS. After 3 days, the spleens of the animals were removed and weighed.
(§4) In parallel experiments, compound A was also administered intraperitoneally at […], as were some related compounds, such as compounds 1 and 2 shown in Table 1, above. In these experiments, after 24 hours, the spleens of the animals were removed and weighed.
(§5) The results of efficacy of compound A administered intraperitoneally were also compared with the results obtained when compound A was administered orally. […] Accordingly, compound A can be administered in both ways, orally or intraperitoneally. […] It was also shown that compound A can be administered safely.

Series [2] relates to B6Bcl2 mice. The series can be described thus: Safety in B6Bcl2 mice (weight loss, physical exam). Type of series: in vivo, mouse. The note with it: regardless of route of administration (oral or intraperitoneal). As for the experimental part: as §3, §4, §5
Where [3] appears, read: FIG. 2, in comparison with compounds 1-4.

Regarding `CC(C)C(C(=O)O)N1C(=O)/C(=C\c2ccc(Br)cc2)SC1=S` (stereo not drawn) [Compound 1], the half-maximal inhibitory concentration (IC50) is 12200 ± 5900 nM with A549L, 6500 ± 10000 nM in the series on RS11846S, 3000 ± 2400 nM in the series with H460 and 60900 ± 1600 nM in the series on PC3ML. For the same compound, the “Microsomal Stability, % (45 minutes)” value in the series “Microsomal stability” turned out to be 54%. On BCL-xL, this compound displayed a Kd of 1100 nM. In addition, the “Plasma Stability, % (45 minutes)” value in “Plasma stability” is recorded as 56%.
As for `CC(C)C(C(=O)O)N1C(=O)/C(=C\c2ccc(-c3ccccc3)cc2)SC1=S` (stereo not drawn) [Compound 2], the “Microsomal Stability, % (45 minutes)” value in the series “Microsomal stability” is given as 22%. In addition, the Kd at BCL-xL was determined as 160 nM. Besides, the “Plasma Stability, % (45 minutes)” value in the series “Plasma stability” came to 59%.
For `CC(=C\c1ccccc1)/C=C1/SC(=S)N(C(C(=O)O)C(C)C)C1=O` (stereo not drawn) [Compound 3] the same measures were 75%, 11800 nM and 51%.
For the compound `O=C(O)CN1C(=O)S/C(=C\c2ccc(-c3ccccc3)cc2)C1=O` [Compound A, (Z)-2-(5-(biphenyl-4-ylmethylene)-2,4-dioxothiazolidin-3-yl)acetic acid], the 50% inhibitory concentration (IC50) in the series with A549L amounted to 800 ± 300 nM; with RS11846S, 400 nM; in the series on H460, 500 ± 300 nM; in the series on PC3ML, 700 ± 600 nM. The “Microsomal Stability, % (45 minutes)” value in the series “Microsomal stability” is 72%. Further, the “influence on the cell viability” value in the series on H460 (setting [3]) and with PC3ML (setting [3]) was “largest influence on the cell viability” in each case. For the same compound, at BCL-xL, the Kd came out at 14000 nM. The “Plasma Stability, % (45 minutes)” value in the series “Plasma stability” is given as 58%. Moreover, the in vivo activity entry with B6Bcl2 mice [1] is “equal to, or better than, known compounds gossypol and apogossypol”. Besides, the “order of potency in terms of in vivo efficacy” value with B6Bcl2 mice [1] is given as “compound A>apogossypol=gossypol”. The shrinkage of spleen entry in the series on B6Bcl2 mice [1] (either route, orally or intraperitoneally) is recorded as “induced shrinkage of spleen”. The “degree of shrinkage of spleen, intraperitoneal injection higher than oral dosing” value in the series on B6Bcl2 mice [1] (intraperitoneal vs oral, FIG. 4) was “about 100%”. In the series on B6Bcl2 mice [1] (intraperitoneally at 60 mmol/kg, spleens weighed after 24 hours, FIG. 3), the “degree of shrinkage of spleen higher than that induced by compounds 1 or 2” value is recorded as “about 40%”. Also, the “weight loss or signs of toxicity via physical exam” value in the series on B6Bcl2 mice [2] was “no weight loss or signs of toxicity”.
With `Cc1cc2c(C(C)C)c(O)c(O)cc2c(O)c1-c1c(C)cc2c(C(C)C)c(O)c(O)cc2c1O` [apogossypol], the “order of potency in terms of in vivo efficacy” value with B6Bcl2 mice [1] is recorded as “compound A>apogossypol=gossypol”.
Regarding apogossypolone, the in vivo activity entry in the series on B6Bcl2 mice [1] is recorded as “not effective”.

The term IC50 denotes the concentration at which inhibition is half-maximal. One may read the Kd as the equilibrium constant for the complex coming apart. A high value points to a looser complex.
